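Cells were grown in 96-well plates and exposed to each compound for 48 hours at five concentrations; endpoints were interpolated linearly between bracketing concentrations, or set to the highest concentration if not reached. TGI: concentration producing complete growth inhibition.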 Where a SMILES comes first, the peptide text is derived from it. The star is where a group is joined. Boc = CC(C)(C)OC(=O)*; OSu = O=C1CCC(=O)N1O*
Tests used:
Assay in all cases: NCI anticancer screen, dose series, 48 h
K-562 leukemia = test system: K-562 leukemia
BT-549 breast = test system: BT-549 breast
MALME-3M melanoma = test system: MALME-3M melanoma
MDA-MB-435 = test system: MDA-MB-435
SK-OV-3 ovarian = test system: SK-OV-3 ovarian
UACC-257 melanoma = test system: UACC-257 melanoma
SF-268 CNS = test system: SF-268 CNS
RXF 393 renal = test system: RXF 393 renal
OVCAR-8 ovarian = test system: OVCAR-8 ovarian
MDA-MB-231 breast = test system: MDA-MB-231 breast
PC-3 prostate = test system: PC-3 prostate
MCF7 breast = test system: MCF7 breast

Cc1cc(-c2nc3ccccc3s2)ccc1NS(=O)(=O)O
TGI (K-562 leukemia): > 100 µM | TGI (BT-549 breast): > 100 µM | TGI (MALME-3M melanoma): > 100 µM | TGI (MDA-MB-435): > 100 µM | TGI (SK-OV-3 ovarian): > 100 µM | TGI (UACC-257 melanoma): > 100 µM | TGI (SF-268 CNS): > 100 µM | TGI (RXF 393 renal): > 100 µM | TGI (OVCAR-8 ovarian): > 100 µM | TGI (MDA-MB-231 breast): > 100 µM | TGI (PC-3 prostate): > 100 µM

COc1ccc(/C(=C/n2ccnc2)C(=O)c2ccc(OC)c(OC)c2)cc1
TGI (K-562 leukemia): > 100 µM | TGI (MALME-3M melanoma): > 100 µM | TGI (UACC-257 melanoma): > 100 µM | TGI (SF-268 CNS): > 100 µM | TGI (OVCAR-8 ovarian): > 100 µM

Cc1ccccc1C1OC1C(=O)c1ccccc1N (stereo unspecified)
TGI (K-562 leukemia): > 100 µM | TGI (MDA-MB-435): 43.2 µM | TGI (SK-OV-3 ovarian): > 100 µM | TGI (UACC-257 melanoma): > 100 µM | TGI (SF-268 CNS): > 100 µM | TGI (RXF 393 renal): > 100 µM | TGI (OVCAR-8 ovarian): > 100 µM | TGI (MCF7 breast): > 100 µM | TGI (MDA-MB-231 breast): > 100 µM | TGI (PC-3 prostate): > 100 µM

N#C/C(=C\NC(=S)Nc1ccc(S(=O)(=O)Nc2ccccn2)cc1)C(N)=O
TGI (K-562 leukemia): > 100 µM | TGI (MALME-3M melanoma): > 100 µM | TGI (MDA-MB-435): > 100 µM | TGI (SK-OV-3 ovarian): > 100 µM | TGI (UACC-257 melanoma): > 100 µM | TGI (SF-268 CNS): > 100 µM | TGI (RXF 393 renal): > 100 µM | TGI (OVCAR-8 ovarian): > 100 µM | TGI (MCF7 breast): > 100 µM | TGI (MDA-MB-231 breast): > 100 µM | TGI (PC-3 prostate): > 100 µM

CCOC(=O)C1=C(C)N(c2ccccc2)C2=C(C(=O)N(c3ccccc3)C2c2ccccc2)C1c1ccccc1 (stereo unspecified)
TGI (K-562 leukemia): > 100 µM | TGI (MALME-3M melanoma): > 100 µM | TGI (SK-OV-3 ovarian): > 100 µM | TGI (UACC-257 melanoma): > 100 µM | TGI (SF-268 CNS): > 100 µM | TGI (RXF 393 renal): > 100 µM | TGI (OVCAR-8 ovarian): > 100 µM

c1ccc([P+](CCNCCNCC[P+](c2ccccc2)(c2ccccc2)c2ccccc2)(c2ccccc2)c2ccccc2)cc1
TGI (BT-549 breast): > 100 µM | TGI (MDA-MB-435): > 100 µM | TGI (SK-OV-3 ovarian): > 100 µM | TGI (UACC-257 melanoma): > 100 µM | TGI (SF-268 CNS): > 100 µM | TGI (RXF 393 renal): > 100 µM | TGI (OVCAR-8 ovarian): > 100 µM | TGI (MCF7 breast): > 100 µM | TGI (MDA-MB-231 breast): > 100 µM

N#CCCN(c1ccc(C=Nc2cccc([N+](=O)[O-])c2)cc1)S(=O)(=O)c1ccccc1
TGI (K-562 leukemia): > 100 µM | TGI (MALME-3M melanoma): > 100 µM | TGI (SK-OV-3 ovarian): > 100 µM | TGI (UACC-257 melanoma): > 100 µM | TGI (SF-268 CNS): > 100 µM | TGI (OVCAR-8 ovarian): > 100 µM

Cc1c(/C=N\NC(=S)N2CCN(C(=S)N/N=C\c3c(C)n(C)n(-c4ccccc4)c3=O)CC2)c(=O)n(-c2ccccc2)n1C
TGI (BT-549 breast): > 100 µM | TGI (MALME-3M melanoma): > 100 µM | TGI (MDA-MB-435): 64.7 µM | TGI (SK-OV-3 ovarian): > 100 µM | TGI (UACC-257 melanoma): 97.3 µM | TGI (SF-268 CNS): > 100 µM | TGI (RXF 393 renal): > 100 µM | TGI (MDA-MB-231 breast): 73.9 µM | TGI (PC-3 prostate): > 100 µM

CO[C@@H](C(=O)OC1C=CC2(CC1)C(=O)N(C)c1ccccc12)c1ccccc1 (stereo partly specified)
TGI (K-562 leukemia): > 100 µM | TGI (MDA-MB-435): > 100 µM | TGI (SK-OV-3 ovarian): > 100 µM | TGI (UACC-257 melanoma): > 100 µM | TGI (OVCAR-8 ovarian): > 100 µM | TGI (MCF7 breast): > 100 µM | TGI (MDA-MB-231 breast): > 100 µM | TGI (PC-3 prostate): > 100 µM

Nc1nc2ncc(SCc3ccc(C(=O)NC(CCC(=O)O)C(=O)O)cc3)cc2c(=O)[nH]1 (stereo unspecified)
TGI (K-562 leukemia): > 100 µM | TGI (BT-549 breast): > 100 µM | TGI (MALME-3M melanoma): > 100 µM | TGI (MDA-MB-435): > 100 µM | TGI (SK-OV-3 ovarian): > 100 µM | TGI (UACC-257 melanoma): > 100 µM | TGI (SF-268 CNS): > 100 µM | TGI (OVCAR-8 ovarian): > 100 µM | TGI (MCF7 breast): > 100 µM | TGI (PC-3 prostate): > 100 µM

CC(=O)NC1C(OCc2ccccc2)OC(CO)C(O)C1OCC(=O)N[C@@H](C)C(=O)N[C@H](CCC(=O)NCCNCCNc1c2ccccc2nc2cccc([N+](=O)[O-])c12)C(N)=O (stereo partly specified)
TGI (K-562 leukemia): > 100 µM | TGI (MALME-3M melanoma): 55.5 µM | TGI (MDA-MB-435): 71.1 µM | TGI (SK-OV-3 ovarian): > 100 µM | TGI (UACC-257 melanoma): 43 µM | TGI (RXF 393 renal): 64 µM | TGI (OVCAR-8 ovarian): > 100 µM | TGI (MCF7 breast): > 100 µM | TGI (MDA-MB-231 breast): > 100 µM | TGI (PC-3 prostate): 73 µM

c1ccc(C[P+]2(c3ccccc3)c3ccccc3-c3ccccc32)cc1
TGI (K-562 leukemia): > 100 µM | TGI (BT-549 breast): > 100 µM | TGI (MDA-MB-435): > 100 µM | TGI (SK-OV-3 ovarian): > 100 µM | TGI (UACC-257 melanoma): > 100 µM | TGI (SF-268 CNS): > 100 µM | TGI (RXF 393 renal): > 100 µM | TGI (OVCAR-8 ovarian): > 100 µM | TGI (MCF7 breast): > 100 µM | TGI (MDA-MB-231 breast): > 100 µM | TGI (PC-3 prostate): > 100 µM

Cc1c(Cl)ccc2c(=O)c3cccc(CC(=O)O)c3oc12
TGI (K-562 leukemia): > 100 µM | TGI (BT-549 breast): > 100 µM | TGI (MALME-3M melanoma): > 100 µM | TGI (MDA-MB-435): > 100 µM | TGI (UACC-257 melanoma): > 100 µM | TGI (SF-268 CNS): > 100 µM | TGI (OVCAR-8 ovarian): > 100 µM | TGI (MCF7 breast): > 100 µM | TGI (MDA-MB-231 breast): > 100 µM | TGI (PC-3 prostate): > 100 µM

CC(C)C(Sc1nc(-c2ccccc2)c(-c2ccccc2)[nH]1)C(=O)NNC(=S)Nc1ccccc1 (stereo unspecified)
TGI (MALME-3M melanoma): 33.3 µM | TGI (SK-OV-3 ovarian): 45.3 µM | TGI (UACC-257 melanoma): 33.5 µM | TGI (SF-268 CNS): 46.5 µM | TGI (OVCAR-8 ovarian): > 100 µM

[N-]=[N+]=Nc1c(Cl)c(=O)n(-c2ccccc2)c2ccccc12
TGI (K-562 leukemia): 49 µM | TGI (BT-549 breast): 39.2 µM | TGI (MALME-3M melanoma): 43.9 µM | TGI (MDA-MB-435): 35 µM | TGI (SK-OV-3 ovarian): > 100 µM | TGI (UACC-257 melanoma): 47.1 µM | TGI (SF-268 CNS): 43.9 µM | TGI (RXF 393 renal): 30.1 µM | TGI (MCF7 breast): 38.7 µM | TGI (PC-3 prostate): 70 µM

Clc1cc(N/N=C(/c2ccccc2)c2ncccn2)ncn1
TGI (K-562 leukemia): 51.8 µM | TGI (BT-549 breast): > 100 µM | TGI (MDA-MB-435): > 100 µM | TGI (SK-OV-3 ovarian): 35.7 µM | TGI (UACC-257 melanoma): 64.4 µM | TGI (SF-268 CNS): > 100 µM | TGI (RXF 393 renal): 41.4 µM | TGI (OVCAR-8 ovarian): 34.6 µM | TGI (MCF7 breast): 46.4 µM | TGI (MDA-MB-231 breast): 82.1 µM | TGI (PC-3 prostate): > 100 µM

O=C1CC(C(O)CO)CC(=O)N1 (stereo unspecified)
TGI (K-562 leukemia): > 100 µM | TGI (BT-549 breast): > 100 µM | TGI (MALME-3M melanoma): > 100 µM | TGI (MDA-MB-435): > 100 µM | TGI (UACC-257 melanoma): > 100 µM | TGI (SF-268 CNS): > 100 µM | TGI (OVCAR-8 ovarian): > 100 µM | TGI (MCF7 breast): > 100 µM | TGI (MDA-MB-231 breast): > 100 µM | TGI (PC-3 prostate): > 100 µM

C[N+](C)(C)CC(=O)N/N=c1\cc(C(=O)Nc2ccc(N=O)cc2C#N)oc2cc(O)ccc12
TGI (K-562 leukemia): > 100 µM | TGI (MALME-3M melanoma): > 100 µM | TGI (SK-OV-3 ovarian): > 100 µM | TGI (UACC-257 melanoma): > 100 µM | TGI (SF-268 CNS): > 100 µM | TGI (RXF 393 renal): > 100 µM | TGI (OVCAR-8 ovarian): > 100 µM

O=c1[nH]c2nc3ccccc3c(=O)n2/c1=C/c1ccc(O)cc1
TGI (BT-549 breast): > 100 µM | TGI (MALME-3M melanoma): > 100 µM | TGI (MDA-MB-435): 69.8 µM | TGI (SK-OV-3 ovarian): > 100 µM | TGI (UACC-257 melanoma): > 100 µM | TGI (SF-268 CNS): > 100 µM | TGI (RXF 393 renal): > 100 µM | TGI (OVCAR-8 ovarian): 54.8 µM | TGI (MCF7 breast): > 100 µM | TGI (MDA-MB-231 breast): > 100 µM | TGI (PC-3 prostate): > 100 µM

C=CCN(CC=C)Cn1c(=S)sc2ccccc21
TGI (BT-549 breast): > 100 µM | TGI (MDA-MB-435): > 100 µM | TGI (SK-OV-3 ovarian): > 100 µM | TGI (UACC-257 melanoma): > 100 µM | TGI (SF-268 CNS): > 100 µM | TGI (RXF 393 renal): > 100 µM | TGI (OVCAR-8 ovarian): > 100 µM | TGI (MCF7 breast): > 100 µM | TGI (MDA-MB-231 breast): > 100 µM | TGI (PC-3 prostate): > 100 µM

CCOC(=O)C(OCC1CC=CCC1)Sc1ccccc1 (stereo unspecified)
TGI (K-562 leukemia): > 100 µM | TGI (MALME-3M melanoma): > 100 µM | TGI (SK-OV-3 ovarian): > 100 µM | TGI (UACC-257 melanoma): > 100 µM | TGI (SF-268 CNS): > 100 µM | TGI (OVCAR-8 ovarian): > 100 µM

CC(C)(C)OC(=O)NC(Cc1ccc(O)cc1)C(=O)NC(CCCCN)C(=O)NC(Cc1ccc(O)cc1)C(=O)NC(CCCCN)C(=O)ON1C(=O)CCC1=O (stereo unspecified) (Boc-YKYK-OSu; configuration not given here)
TGI (K-562 leukemia): > 100 µM | TGI (BT-549 breast): > 100 µM | TGI (MALME-3M melanoma): > 100 µM | TGI (UACC-257 melanoma): > 100 µM | TGI (RXF 393 renal): > 100 µM | TGI (OVCAR-8 ovarian): > 100 µM | TGI (MCF7 breast): > 100 µM | TGI (MDA-MB-231 breast): > 100 µM | TGI (PC-3 prostate): > 100 µM

Source: PubChem BioAssay (NCI)
